# From patent publication EP3030673B1, “SCREENING AND IDENTIFICATION OF RESISTANT MARKERS IN CRUSTACEAN” (priority 2013, dated 2015)
# Like-named read-outs stand apart in the source and are kept apart here.
# How the values were obtained:
# Assay type in all cases: in vivo, Lepeophtheirus salmonis
# [1] = test system: LsVikna (pyrethroid resistant strain); test: Deltamethrin bioassay on adult male sea lice, pyrethroid resistant strain
# Text: (§1) In order to investigate the inheritance and mechanism of pyrethroid resistance in L. salmonis, two strains (sensitive and resistant) and their reciprocal hybrids were used for a two-generation breeding experiment complimented with bioassays to measure tolerance (Fig. 2). The pyrethroid sensitive strain (hereon also referred to as LsGulen) was collected in June 2006 from newly slaughtered rainbow trout from Gulen in western Norway. The pyrethroid resistant strain (hereon also referred to as LsVikna) was collected in February 2009 from a salmon farm in Vikna, North Trøndelag, Norway. The resistant strain was collected on the basis of suspected reduced sensitivity to pyrethroids due to the fact that there had been reported a treatment failure on the farm from which it was collected. This was subsequently confirmed in bioassays with LsGulen as sensitive control.
# (§2) Each strain, including both types of hybrids obtained in example 1 were quantified in their tolerance of deltamethrin at sampling points 1 and 2 representing the F1 and F2 generations for the hybrids (Fig. 1 and 2). Bioassays were performed according to standard guidelines (SEARCH Consortium, 2006, Sea lice resistance to chemotherapeutants: A handbook in resistance management. 2 ed.), with minor modifications. Only adult male lice were used for the bioassay, which after sampling (at 55 or 56 dpi) had been incubated overnight in running seawater (ca. 10 °C). The 30 min exposure to the prepared deltamethrin concentration was also carried out at ca. 10 °C, and higher concentrations than those described in the given protocol were included (Table S3). After exposure to deltamethrin, the lice were kept in running seawater (24 h at ca. 10 °C) until evaluation of the bioassays. […] EC50 values were calculated using probit analysis (PoloPlus 2.0; LeOra Software, CA, USA). Table 3a. […]
# [2] = test system: LsGulen (pyrethroid sensitive strain)
# Text: as §1, §2
# [3] = test system: LsHybridV (LsVikna as its maternal strain); test: Deltamethrin bioassay on adult male sea lice, hybrid strain with resistant maternal strain
# Procedure: (§3) In order to hybridise the lice strains for the inheritance experiment, the parental strains were first synchronised and multiplied up in numbers by simultaneously infecting 20 Atlantic salmon with copepods. In total, 1000 copepods per strain were added. At 32 days post infection (dpi), all salmon were anaesthetised and approximately half of the lice were carefully removed using tweezers. At this stage, lice were predominantly preadult 2 females and adult males, with a few percent adult females and preadult 2 males. The lice removed from the salmon were sexed, and then used to create the reciprocal hybrid strains. This was achieved by combining 4-5 females from the resistant strain and 4-5 males from the sensitive strain (LsHybridV), and 4-5 females from the sensitive strain and 4-5 males from the resistant strain (LsHybridG). Only preadult 2 females were used. These combinations were each placed into 2 replicate tanks in order to make two hybrid strains (4 groups and 8 tanks at this stage). At 67-68 dpi, all lice were removed from the four strains. Egg strings were removed from adult females and incubated in containers containing a single strain each. The number of adult lice, and harvested egg strings varied, but all were incubated (Table 2). Table 2. Number of egg strings collected from each strain. Egg strings from replicate tanks were pooled. Most egg strings were part of a pair.
# (§4) The subsequent generation (F2, Fig. 2) were both produced using the general procedure described above, although the hybrid strains were only crossed back to themselves to create multiple generation-hybrids. Collection of egg strings, which marked the establishment of a new generation, was done at 55 and 56 dpi respectively. Salmon that hosted the previous generation were re-used for reinfection with the next generation, but hosted only the same experimental strain.
# (§5) Each strain, including both types of hybrids obtained in example 1 were quantified in their tolerance of deltamethrin at sampling points 1 and 2 representing the F1 and F2 generations for the hybrids (Fig. 1 and 2). Bioassays were performed according to standard guidelines (SEARCH Consortium, 2006, Sea lice resistance to chemotherapeutants: A handbook in resistance management. 2 ed.), with minor modifications. Only adult male lice were used for the bioassay, which after sampling (at 55 or 56 dpi) had been incubated overnight in running seawater (ca. 10 °C). The 30 min exposure to the prepared deltamethrin concentration was also carried out at ca. 10 °C, and higher concentrations than those described in the given protocol were included (Table S3). After exposure to deltamethrin, the lice were kept in running seawater (24 h at ca. 10 °C) until evaluation of the bioassays. […] EC50 values were calculated using probit analysis (PoloPlus 2.0; LeOra Software, CA, USA). Table 3a. Deltamethrin bioassays performed on sampling set 1
# [4] = test system: LsHybridG (LsGulen as its maternal strain)
# Procedure: as §3, §4, §5
smiles,measurement,setting,value
"CC1(C)[C@H](C(=O)O[C@H](C#N)c2cccc(Oc3ccccc3)c2)[C@@H]1C=C(Br)Br [Deltamethrin, deltamethrin]",survival of the bioassay,"[1]; above 1 ppb, resistant strain",survived the bioassay
same,% Inactive,"[1]; sampling set 1, F6, fish tank 05, dose 0.1 ppb",0%
same,% Inactive,"[1]; sampling set 1, F6, fish tank 05, dose 0.3 ppb",0%
same,% Inactive,"[1]; sampling set 1, F6, fish tank 05, dose 1 ppb",12%
same,% Inactive,"[1]; sampling set 1, F6, fish tank 05, dose 3 ppb",27%
same,% Inactive,"[1]; sampling set 1, F6, fish tank 05, dose 6 ppb",35%
same,% Inactive,"[1]; sampling set 1, F6, fish tank 05, dose 12 ppb",41%
same,% Inactive,"[1]; sampling set 1, F6, fish tank 09, dose 0.1 ppb",4%
same,% Inactive,"[1]; sampling set 1, F6, fish tank 09, dose 0.3 ppb",0%
same,% Inactive,"[1]; sampling set 1, F6, fish tank 09, dose 1 ppb",10%
same,% Inactive,"[1]; sampling set 1, F6, fish tank 09, dose 3 ppb",19%
same,% Inactive,"[1]; sampling set 1, F6, fish tank 09, dose 6 ppb",23%
same,% Inactive,"[1]; sampling set 1, F6, fish tank 09, dose 12 ppb",28%
same,% Inactive,"[1]; sampling set 2, F7, fish tank 08, dose 0.1 ppb",0%
same,% Inactive,"[1]; sampling set 2, F7, fish tank 08, dose 0.3 ppb",0%
same,% Inactive,"[1]; sampling set 2, F7, fish tank 08, dose 0.5 ppb",0%
same,% Inactive,"[1]; sampling set 2, F7, fish tank 08, dose 1 ppb",0%
same,% Inactive,"[1]; sampling set 2, F7, fish tank 08, dose 3 ppb",6%
same,% Inactive,"[1]; sampling set 2, F7, fish tank 08, dose 6 ppb",18%
same,% Inactive,"[1]; sampling set 2, F7, fish tank 08, dose 12 ppb",0%
same,% Inactive,"[1]; sampling set 2, F7, fish tank 08, dose 20 ppb",39%
same,mortality,"[2]; above 1 ppb, sensitive strain",100%
same,% Inactive,"[2]; sampling set 1, F15, fish tank 04, dose 0.1 ppb",0%
same,% Inactive,"[2]; sampling set 1, F15, fish tank 04, dose 0.3 ppb",48%
same,% Inactive,"[2]; sampling set 1, F15, fish tank 04, dose 1 ppb",100%
same,% Inactive,"[2]; sampling set 1, F15, fish tank 04, dose 3 ppb",100%
same,% Inactive,"[2]; sampling set 1, F15, fish tank 04, dose 6 ppb",100%
same,% Inactive,"[2]; sampling set 1, F15, fish tank 04, dose 12 ppb",100%
same,% Inactive,"[2]; sampling set 1, F15, fish tank 10, dose 0.1 ppb",0%
same,% Inactive,"[2]; sampling set 1, F15, fish tank 10, dose 0.3 ppb",50%
same,% Inactive,"[2]; sampling set 1, F15, fish tank 10, dose 1 ppb",100%
same,% Inactive,"[2]; sampling set 1, F15, fish tank 10, dose 3 ppb",100%
same,% Inactive,"[2]; sampling set 1, F15, fish tank 10, dose 6 ppb",100%
same,% Inactive,"[2]; sampling set 1, F15, fish tank 10, dose 12 ppb",100%
same,% Inactive,"[2]; sampling set 2, F16, fish tank 03, dose 0.1 ppb",5%
same,% Inactive,"[2]; sampling set 2, F16, fish tank 03, dose 0.3 ppb",48%
same,% Inactive,"[2]; sampling set 2, F16, fish tank 03, dose 0.5 ppb",86%
same,% Inactive,"[2]; sampling set 2, F16, fish tank 03, dose 1 ppb",100%
same,% Inactive,"[2]; sampling set 2, F16, fish tank 03, dose 3 ppb",100%
same,% Inactive,"[2]; sampling set 2, F16, fish tank 03, dose 6 ppb",100%
same,% Inactive,"[2]; sampling set 2, F16, fish tank 04, dose 0.1 ppb",8%
same,% Inactive,"[2]; sampling set 2, F16, fish tank 04, dose 0.3 ppb",55%
same,% Inactive,"[2]; sampling set 2, F16, fish tank 04, dose 0.5 ppb",95%
same,% Inactive,"[2]; sampling set 2, F16, fish tank 04, dose 1 ppb",100%
same,% Inactive,"[2]; sampling set 2, F16, fish tank 04, dose 3 ppb",100%
same,% Inactive,"[2]; sampling set 2, F16, fish tank 04, dose 6 ppb",100%
same,% Inactive,"[2]; sampling set 2, F16, fish tank 04, dose 12 ppb",100%
same,survival of the bioassay,"[3]; above 1 ppb, maternal hybrid strain of the resistant strain",survived the bioassay
same,% Inactive,"[3]; sampling set 1, F1, fish tank 02, dose 0.1 ppb",0%
same,% Inactive,"[3]; sampling set 1, F1, fish tank 02, dose 0.3 ppb",0%
same,% Inactive,"[3]; sampling set 1, F1, fish tank 02, dose 1 ppb",5%
same,% Inactive,"[3]; sampling set 1, F1, fish tank 02, dose 3 ppb",13%
same,% Inactive,"[3]; sampling set 1, F1, fish tank 02, dose 6 ppb",5%
same,% Inactive,"[3]; sampling set 1, F1, fish tank 02, dose 12 ppb",31%
same,% Inactive,"[3]; sampling set 1, F1, fish tank 06, dose 0.1 ppb",0%
same,% Inactive,"[3]; sampling set 1, F1, fish tank 06, dose 0.3 ppb",0%
same,% Inactive,"[3]; sampling set 1, F1, fish tank 06, dose 1 ppb",7%
same,% Inactive,"[3]; sampling set 1, F1, fish tank 06, dose 3 ppb",2%
same,% Inactive,"[3]; sampling set 1, F1, fish tank 06, dose 6 ppb",9%
same,% Inactive,"[3]; sampling set 1, F1, fish tank 06, dose 12 ppb",32%
same,% Inactive,"[3]; sampling set 2, F2, fish tank 06, dose 0.1 ppb",0%
same,% Inactive,"[3]; sampling set 2, F2, fish tank 06, dose 0.3 ppb",0%
same,% Inactive,"[3]; sampling set 2, F2, fish tank 06, dose 0.5 ppb",0%
same,% Inactive,"[3]; sampling set 2, F2, fish tank 06, dose 1 ppb",0%
same,% Inactive,"[3]; sampling set 2, F2, fish tank 06, dose 3 ppb",16%
same,% Inactive,"[3]; sampling set 2, F2, fish tank 06, dose 6 ppb",14%
same,% Inactive,"[3]; sampling set 2, F2, fish tank 06, dose 12 ppb",21%
same,% Inactive,"[3]; sampling set 2, F2, fish tank 06, dose 20 ppb",40%
same,% Inactive,"[3]; sampling set 2, F2, fish tank 09, dose 0.1 ppb",14%
same,% Inactive,"[3]; sampling set 2, F2, fish tank 09, dose 0.3 ppb",0%
same,% Inactive,"[3]; sampling set 2, F2, fish tank 09, dose 0.5 ppb",3%
same,% Inactive,"[3]; sampling set 2, F2, fish tank 09, dose 1 ppb",5%
same,% Inactive,"[3]; sampling set 2, F2, fish tank 09, dose 3 ppb",0%
same,% Inactive,"[3]; sampling set 2, F2, fish tank 09, dose 6 ppb",19%
same,% Inactive,"[3]; sampling set 2, F2, fish tank 09, dose 12 ppb",8%
same,% Inactive,"[3]; sampling set 2, F2, fish tank 09, dose 20 ppb",54%
same,mortality,"[4]; above 1 ppb, maternal hybrid strain of the sensitive strain",100%
same,% Inactive,"[4]; sampling set 1, F1, fish tank 01, dose 0.1 ppb",0%
same,% Inactive,"[4]; sampling set 1, F1, fish tank 01, dose 0.3 ppb",21%
same,% Inactive,"[4]; sampling set 1, F1, fish tank 01, dose 1 ppb",100%
same,% Inactive,"[4]; sampling set 1, F1, fish tank 01, dose 3 ppb",100%
same,% Inactive,"[4]; sampling set 1, F1, fish tank 01, dose 6 ppb",100%
same,% Inactive,"[4]; sampling set 1, F1, fish tank 01, dose 12 ppb",100%
same,% Inactive,"[4]; sampling set 1, F1, fish tank 07, dose 0.1 ppb",18%
same,% Inactive,"[4]; sampling set 1, F1, fish tank 07, dose 0.3 ppb",32%
same,% Inactive,"[4]; sampling set 1, F1, fish tank 07, dose 1 ppb",100%
same,% Inactive,"[4]; sampling set 1, F1, fish tank 07, dose 3 ppb",100%
same,% Inactive,"[4]; sampling set 1, F1, fish tank 07, dose 6 ppb",100%
same,% Inactive,"[4]; sampling set 1, F1, fish tank 07, dose 12 ppb",100%
same,% Inactive,"[4]; sampling set 2, F2, fish tank 07, dose 0.1 ppb",0%
same,% Inactive,"[4]; sampling set 2, F2, fish tank 07, dose 0.3 ppb",50%
same,% Inactive,"[4]; sampling set 2, F2, fish tank 07, dose 0.5 ppb",85%
same,% Inactive,"[4]; sampling set 2, F2, fish tank 07, dose 1 ppb",90%
same,% Inactive,"[4]; sampling set 2, F2, fish tank 07, dose 3 ppb",100%
same,% Inactive,"[4]; sampling set 2, F2, fish tank 07, dose 6 ppb",100%
same,% Inactive,"[4]; sampling set 2, F2, fish tank 07, dose 12 ppb",100%
same,% Inactive,"[4]; sampling set 2, F2, fish tank 07, dose 20 ppb",100%
same,% Inactive,"[4]; sampling set 2, F2, fish tank 10, dose 0.1 ppb",5%
same,% Inactive,"[4]; sampling set 2, F2, fish tank 10, dose 0.3 ppb",43%
same,% Inactive,"[4]; sampling set 2, F2, fish tank 10, dose 0.5 ppb",72%
same,% Inactive,"[4]; sampling set 2, F2, fish tank 10, dose 1 ppb",100%
same,% Inactive,"[4]; sampling set 2, F2, fish tank 10, dose 3 ppb",100%
same,% Inactive,"[4]; sampling set 2, F2, fish tank 10, dose 6 ppb",100%
same,% Inactive,"[4]; sampling set 2, F2, fish tank 10, dose 12 ppb",100%
same,% Inactive,"[4]; sampling set 2, F2, fish tank 10, dose 20 ppb",100%
